Key:
[1] = tested on: INK-134; experiment: CellTiter-Glo cell proliferation assay; format: cell-based; conditions: Glioma, Helical-HET.545E > D, HET.1043M > I
[2] = tested on: CAL51; experiment: CellTiter-Glo cell proliferation assay; format: cell-based; conditions: Homo sapiens, CAL-51, Breast, PTEN/HET.542E > K
Procedure: (§1) Cell Culture Medium: RPMI or DMEM high glucose, 10% Fetal Bovine Serum, 2 mM L-Glutamine, P/S. Incubate O/N (overnight) at 37° C., 5% CO2.
(§2) Drug Addition to Cells, Cell Plate (1:10 dilution): Add 6 μl of media+compound directly to cells (54 μl of media on the cells already). Incubate 3 days at 37° C., 5% CO2 in an incubator that will not be opened often.
(§3) Day 5—Develop Plates, Thaw Cell Titer Glo Buffer at room temperature: Remove Cell Plates from 37° C. and equilibrate to room temperature for about 30 minutes. Add Cell Titer-Glo® Buffer to Cell Titer-Glo® Substrate (bottle to bottle). Add 30 μl Cell Titer-Glo® Reagent (Promega cat.#G7572) to each well of cells. Place on plate shaker for about 30 minutes. Read luminescence on Analyst HT Plate Reader (half second per well).

[3] = tested on: EFM-19; experiment: CellTiter-Glo cell proliferation assay; format: cell-based; conditions: Homo sapiens, Breast, Kinase-HOM.1047H > L
Procedure: as §1, §2, §3

[4] = tested on: EVSA-T; experiment: CellTiter-Glo cell proliferation assay; format: cell-based; conditions: Homo sapiens, Breast, PTEN
[5] = tested on: HDQ-P1; experiment: CellTiter-Glo cell proliferation assay; format: cell-based; conditions: Homo sapiens, Breast, WT
Procedure: as §1, §2, §3

[6] = tested on: HS 578T-1x2; experiment: CellTiter-Glo cell proliferation assay; format: cell-based; conditions: Breast, WT
[7] = tested on: KPL4; experiment: CellTiter-Glo cell proliferation assay; format: cell-based; conditions: Breast, Kinase-HET.1047H > R, HET.350D > N
Procedure: as §1, §2, §3

[8] = tested on: MDA-MB-436; experiment: CellTiter-Glo cell proliferation assay; format: cell-based; conditions: Homo sapiens, Breast, PTEN
[9] = tested on: MFM223; experiment: CellTiter-Glo cell proliferation assay; format: cell-based; conditions: Homo sapiens, MFM-223, Breast, Kinase-HET.1047H > R, HET.350D > N
Procedure: as §1, §2, §3

[10] = tested on: MX-1; experiment: CellTiter-Glo cell proliferation assay; format: cell-based; conditions: Homo sapiens, MX1, Breast, PTEN
Procedure: as §1, §2, §3

[11] = tested on: SKBR3; experiment: CellTiter-Glo cell proliferation assay; format: cell-based; conditions: Homo sapiens, SK-BR-3, Breast, HER2 Amplified
Procedure: as §1, §2, §3

[12] = tested on: HT-29; experiment: CellTiter-Glo cell proliferation assay; format: cell-based; conditions: Homo sapiens, Colon, K-RAS
[13] = tested on: LS-180; experiment: CellTiter-Glo cell proliferation assay; format: cell-based; conditions: Homo sapiens, LS180, Colon, KRAS/HET.1047H > R
[14] = tested on: HCT116; experiment: CellTiter-Glo cell proliferation assay; format: cell-based; conditions: Homo sapiens, HCT-116, Colon, KRAS/HET.1047H > R
[15] = tested on: DLD-1; experiment: CellTiter-Glo cell proliferation assay; format: cell-based; conditions: Homo sapiens, Colon, KRAS/HET.545E > K
[16] = tested on: KM12; experiment: CellTiter-Glo cell proliferation assay; format: cell-based; conditions: Homo sapiens, Colon, PTEN
[17] = tested on: MDST8; experiment: CellTiter-Glo cell proliferation assay; format: cell-based; conditions: Colon, PTEN/B-Raf
[18] = tested on: U87MG; experiment: CellTiter-Glo cell proliferation assay; format: cell-based; conditions: Homo sapiens, U-87 MG, Glioma, PTEN
[19] = tested on: G22; experiment: CellTiter-Glo cell proliferation assay; format: cell-based; conditions: Glioma, PTEN
[20] = tested on: MO59J; experiment: CellTiter-Glo cell proliferation assay; format: cell-based; conditions: Glioma, PTEN/KRAS
[21] = tested on: LXFL-529; experiment: CellTiter-Glo cell proliferation assay; format: cell-based; conditions: Homo sapiens, Lung(NSCLC), Helical-HET.542E > K
[22] = tested on: HOP18; experiment: CellTiter-Glo cell proliferation assay; format: cell-based; conditions: Homo sapiens, HOP-18, Lung(NSCLC), K-RAS
[23] = tested on: H292; experiment: CellTiter-Glo cell proliferation assay; format: cell-based; conditions: Homo sapiens, NCI-H292, Lung(NSCLC), K-RAS
[24] = tested on: H23; experiment: CellTiter-Glo cell proliferation assay; format: cell-based; conditions: Homo sapiens, NCI-H23, Lung(NSCLC), K-RAS
[25] = tested on: KNS-62; experiment: CellTiter-Glo cell proliferation assay; format: cell-based; conditions: Homo sapiens, Lung(NSCLC), K-RAS
[26] = tested on: A427; experiment: CellTiter-Glo cell proliferation assay; format: cell-based; conditions: Homo sapiens, A-427, Lung(NSCLC), K-RAS
[27] = tested on: HOP92; experiment: CellTiter-Glo cell proliferation assay; format: cell-based; conditions: Homo sapiens, HOP-92, Lung(NSCLC), WT
[28] = tested on: H520; experiment: CellTiter-Glo cell proliferation assay; format: cell-based; conditions: Homo sapiens, NCI-H520, Lung(NSCLC), PTEN
[29] = tested on: H1650; experiment: CellTiter-Glo cell proliferation assay; format: cell-based; conditions: Homo sapiens, NCI-H1650, Lung(NSCLC), PTEN
[30] = tested on: H661; experiment: CellTiter-Glo cell proliferation assay; format: cell-based; conditions: Homo sapiens, NCI-H661, Lung(NSCLC), WT
[31] = tested on: H417; experiment: CellTiter-Glo cell proliferation assay; format: cell-based; conditions: Homo sapiens, NCI-H417, Lung(SC), Helical-HET.546Q > K, HOM.391I > M
[32] = tested on: A2058; experiment: CellTiter-Glo cell proliferation assay; format: cell-based; conditions: Homo sapiens, Melanoma, PTEN/B-Raf
[33] = tested on: EFO21; experiment: CellTiter-Glo cell proliferation assay; format: cell-based; conditions: Homo sapiens, EFO-21, Ovarian, PTEN
[34] = tested on: HPAC; experiment: CellTiter-Glo cell proliferation assay; format: cell-based; conditions: Homo sapiens, Pancreatic, K-RAS
[35] = tested on: PC3; experiment: CellTiter-Glo cell proliferation assay; format: cell-based; conditions: Homo sapiens, PC-3, Prostate, PTEN
[36] = tested on: MCF-7 breast tumor xenografts; experiment: In vivo mouse tumor xenograft efficacy; design: species or system mice
Procedure: Fulvestrant was dosed subcutaneously with 5 mg of drug once a week (qw) for 3 weeks.
Paclitaxel was dosed intravenously every 4 days for 5 cycles with 7.5 mg/kg of drug.
Xenografts were initiated with cancer cells. […] Volume was calculated using the formula: […]

[37] = tested on: SW48 parental cells; experiment: four day CellTiter-Glo viability assay, SW48 isogenic cell line set; conditions: Homo sapiens, SW48, 96 h, read-out: Viability EC50
Source text: (§4) SW48 parental cells and knock-in mutant subclones harboring common PIK3CA hotspot mutations E545K or H1047R were obtained from Horizon Discovery.

[38] = tested on: SW48 PIK3CA E545K knock-in mutant subclone; experiment: as above; conditions: Homo sapiens, SW48, 96 h, read-out: Viability EC50
Source text: as §4

[39] = tested on: SW48 PIK3CA H1047R knock-in mutant subclone; experiment: as above; conditions: Homo sapiens, SW48, 96 h, read-out: Viability EC50
Source text: as §4

`Cc1nc(-c2cn3c(n2)-c2ccc(-c4cnn(C(C)(C)C(N)=O)c4)cc2OCC3)n(C(C)C)n1` [GDC-0032, 2-(4-(2-(1-isopropyl-3-methyl-1H-1,2,4-triazol-5-yl)-5,6-dihydrobenzo[f]imidazo[1,2-d][1,4]oxazepin-9-yl)-1H-pyrazol-1-yl)-2-methylpropanamide] was tested, and the EC50 [1] was 976 nM, the EC50 [2] was 326 nM and the EC50 [3] was 13 nM. The EC50 [4] was 1120 nM, the EC50 [5] was 258 nM and the EC50 [6] was 2070 nM. It also gave an EC50 [7] of 16 nM, an EC50 [8] of 4.69 µM and an EC50 [9] of 211 nM. For the same compound, the EC50 [10] was 892 nM, the EC50 [11] was 43 nM and the EC50 [12] was 75 nM. The EC50 [13] was 795 nM, the EC50 [14] was 897 nM and the EC50 [15] was 2500 nM. The EC50 [16] was 4.69 µM, the EC50 [17] was 4.01 µM and the EC50 [18] was 1020 nM. It also gave an EC50 [19] of 6.02 µM, an EC50 [20] of 5.65 µM and an EC50 [21] of 57 nM. It also gave an EC50 [22] of 77 nM, an EC50 [23] of 274 nM and an EC50 [24] of 2740 nM. It also gave an EC50 [25] of 3.56 µM, an EC50 [26] of 10 µM and an EC50 [27] of 1690 nM. For the same compound, the EC50 [28] was 264 nM, the EC50 [29] was 1480 nM and the EC50 [30] was 497 nM. The EC50 [31] was 1280 nM, the EC50 [32] was 9.24 µM and the EC50 [33] was 10 µM. For the same compound, the EC50 [34] was 645 nM, the EC50 [35] was 864 nM and the tumor volume change ([36]; PO daily (QD), 21 days, nude mice) was “dose-dependent decrease in tumor volume”. The tumor response ([36]; all doses of GDC-0032 tested, versus vehicle) was “Increased tumor regressions”, the EC50 [37] was 22 nM and the EC50 [38] was 5 nM. For the same compound, the EC50 [39] was 8 nM.
